Experimental data: patent US10239844B2, “Disubstituted triazole analogs” (BioVentures, LLC, priority 2014, dated 2019)

How the values were obtained:
Format in all cases: cell-based, human
[1] = tested on: CCRF-CEM; assay: NCI 60 panel five-dose growth inhibition, Leukemia; details: for GI50: Homo sapiens
[2] = tested on: HL-60(T13); assay: NCI 60 panel five-dose growth inhibition, Leukemia; details: for GI50: Homo sapiens
[3] = tested on: K-562; assay: NCI 60 panel five-dose growth inhibition, Leukemia; details: K-562, Leukemia; for GI50: Homo sapiens, K562
[4] = tested on: RPMI-8226; assay: NCI 60 panel five-dose growth inhibition, Leukemia; details: RPMI-8226, Leukemia; for GI50: Homo sapiens
[5] = tested on: SR; assay: NCI 60 panel five-dose growth inhibition, Leukemia; details: for GI50: Homo sapiens
[6] = tested on: A549/ATCC; assay: NCI 60 panel five-dose growth inhibition, Non-Small Cell Lung Cancer; details: for GI50: Homo sapiens
[7] = tested on: NCI-H23; assay: as above; details: for GI50: Homo sapiens
[8] = tested on: COLO 205; assay: NCI 60 panel five-dose growth inhibition, Colon Cancer; details: COLO 205, Colon Cancer; for GI50: Homo sapiens
[9] = tested on: HCT-116; assay: as above; details: HCT-116, Colon Cancer; for GI50: Homo sapiens
[10] = tested on: 1-ICT-15; assay: as above; details: 1-ICT-15, Colon Cancer; for GI50: Homo sapiens
[11] = tested on: HT29; assay: as above; details: for GI50: Homo sapiens, HT-29
[12] = tested on: KM12; assay: as above; details: for GI50: Homo sapiens
[13] = tested on: SW-620; assay: as above; details: SW-620, Colon Cancer; for GI50: Homo sapiens
[14] = tested on: SF-268; assay: NCI 60 panel five-dose growth inhibition, CNS Cancer; details: SF-268, CNS Cancer; for GI50: Homo sapiens
[15] = tested on: SF-295; assay: as above; details: SF-295, CNS Cancer; for GI50: Homo sapiens
[16] = tested on: SF-539; assay: as above; details: for GI50: Homo sapiens
[17] = tested on: SNB-19; assay: as above; details: SNB-19, CNS Cancer; for GI50: Homo sapiens
[18] = tested on: SNB-75; assay: as above; details: SNB-75, CNS Cancer; for GI50: Homo sapiens
[19] = tested on: LOX IMVI; assay: NCI 60 panel five-dose growth inhibition, Melanoma; details: for GI50: Homo sapiens
[20] = tested on: M14; assay: NCI 60 panel five-dose growth inhibition, Melanoma; details: for GI50: Homo sapiens
[21] = tested on: MDA-MB-435; assay: NCI 60 panel five-dose growth inhibition, Melanoma; details: for GI50: Homo sapiens
[22] = tested on: SK-MEL-2; assay: NCI 60 panel five-dose growth inhibition, Melanoma; details: SK-MEL-2, Melanoma; for GI50: Homo sapiens
[23] = tested on: SK-MEL-28; assay: NCI 60 panel five-dose growth inhibition, Melanoma; details: SK-MEL-28, Melanoma
[24] = tested on: UACC-62; assay: NCI 60 panel five-dose growth inhibition, Melanoma; details: for GI50: Homo sapiens, UACC-62, UACC-62, Melanoma; for TGI: UACC-62, Melanoma
[25] = tested on: OVCA R-3; assay: NCI 60 panel five-dose growth inhibition, Ovarian Cancer; details: for GI50: Homo sapiens, OVCAR-3
[26] = tested on: OVCAR-4; assay: as above; details: OVCAR-4, Ovarian Cancer; for GI50: Homo sapiens
[27] = tested on: NCI/ADR-RES; assay: as above; details: for GI50: Homo sapiens
[28] = tested on: 786-0; assay: NCI 60 panel five-dose growth inhibition, Renal Cancer; details: 786-0, Renal Cancer; for GI50: Homo sapiens
[29] = tested on: A498; assay: as above; details: for GI50: Homo sapiens, A498, A498, Renal Cancer
[30] = tested on: CAKI-1; assay: as above; details: CAKI-1, Renal Cancer; for GI50: Homo sapiens
[31] = tested on: U0-31; assay: as above; details: U0-31, Renal Cancer; for GI50: Homo sapiens
[32] = tested on: PC-3; assay: NCI 60 panel five-dose growth inhibition, Prostate Cancer; details: PC-3, Prostate Cancer; for GI50: Homo sapiens
[33] = tested on: DU-145; assay: as above; details: DU-145, Prostate Cancer; for GI50: Homo sapiens
[34] = tested on: MCF7; assay: NCI 60 panel five-dose growth inhibition, Breast Cancer; details: for GI50: Homo sapiens
[35] = tested on: HS 5781; assay: as above; details: HS 5781, Breast Cancer; for GI50: Homo sapiens
[36] = tested on: MDA-MB-468; assay: as above; details: MDA-MB-468, Breast Cancer; for GI50: Homo sapiens

## COc1cc(-c2n[nH]nc2-c2cc(OC)c(OC)c(OC)c2)cc(OC)c1OC [Example 3, 4,5-bis(3,4,5-trimethoxyphenyl)-2H-1,2,3-triazole]
[1]
  TGI: >100 µM
  GI50: 37.3 nM
[2]
  TGI: 5.74 µM
  GI50: 30 nM
[3]
  GI50: 25.7 nM
  TGI: >100 µM
[4]
  GI50: 36.5 nM
  TGI: 87.6 µM
[5]
  TGI: >100 µM
  GI50: 21.1 nM
[6]
  TGI: >100 µM
  GI50: 54.1 nM
[7]
  TGI: >100 µM
  GI50: 64.9 nM
[8]
  TGI: 1.16 µM
  GI50: 228 nM
[9]
  GI50: 40.2 nM
[10]
  TGI: >100 µM
  GI50: 37.3 nM
[11]
  TGI: 14.5 µM
  GI50: 214 nM
[12]
  TGI: >100 µM
  GI50: 35.3 nM
[13]
  GI50: 40.6 nM
  TGI: >100 µM
[14]
  GI50: 503 nM
  TGI: >100 µM
[15]
  GI50: 14.4 nM
  TGI: >100 µM
[16]; SF-539, CNS Cancer
  GI50: 20 nM
  TGI: 0.05 µM
[17]
  GI50: 52.5 nM
  TGI: >100 µM
[18]
  GI50: 15.7 nM
[19]
  TGI: >100 µM
  GI50: 65.2 nM
[20]
  GI50: 21.5 nM
[21]; MDA-MB-435, Melanoma
  GI50: < 10 nM
[22]
  GI50: 26.9 nM
  TGI: 4.24 µM
[23]; Homo sapiens
  GI50: > 1000 nM
[23]
  TGI: 6.33 µM
[24]
  GI50: 157 nM
  TGI: 4.61 µM
[25]; OVCA R-3, Ovarian Cancer
  GI50: 10.8 nM
  TGI: 0.04 µM
[26]
  GI50: 77.4 nM
  TGI: >100 µM
[27]
  TGI: 66.1 µM
  GI50: 23.1 nM
[28]
  TGI: >100 µM
  GI50: 42.8 nM
[29]; A498, Renal Cancer
  TGI: 6.69 µM
[29]
  GI50: 33.2 nM
[30]
  TGI: >100 µM
  GI50: 42.6 nM
[31]
  GI50: 92.3 nM
  TGI: >100 µM
[32]
  GI50: 45.8 nM
  TGI: >100 µM
[33]
  GI50: 26.6 nM
[34]
  TGI: >100 µM
  GI50: 26.9 nM
[35]
  TGI: >100 µM
[36]
  GI50: 34.6 nM
  TGI: 26.0 µM

## COc1cc(-c2n[nH]nc2-c2ccc3ccccc3n2)cc(OC)c1OC [Example 4, 2-(5-(3,4,5-trimethoxyphenyl)-2H-1,2,3-triazol-4-yl)quinoline]
[1]
  TGI: 21.8 µM
  GI50: 31.9 nM
[2]
  GI50: 22.7 nM
[3]
  GI50: < 10 nM
  TGI: >100 µM
[4]
  GI50: 36.8 nM
  TGI: 21.1 µM
[5]
  TGI: 16.9 µM
  GI50: < 10 nM
[6]
  TGI: >100 µM
  GI50: 37.4 nM
[7]
  TGI: 27.9 µM
  GI50: 37.7 nM
[8]
  TGI: 0.64 µM
  GI50: 149 nM
[9]
  TGI: 1.47 µM
  GI50: < 10 nM
[10]
  TGI: 5.13 µM
  GI50: < 10 nM
[11]
  TGI: 20.5 µM
  GI50: 47.6 nM
[12]
  TGI: 23.8 µM
  GI50: 29.8 nM
[13]
  GI50: 29.5 nM
  TGI: >100 µM
[14]
  GI50: 177 nM
  TGI: >100 µM
[15]
  GI50: 10.8 nM
  TGI: 0.15 µM
[16]; SF-539, CNS Cancer
  GI50: 13.8 nM
  TGI: 0.04 µM
[17]
  GI50: 36.9 nM
  TGI: >100 µM
[18]
  GI50: 14.2 nM
  TGI: >100 µM
[19]
  TGI: >100 µM
  GI50: 75.5 nM
[20]
  TGI: >100 µM
  GI50: < 10 nM
[21]; MDA-MB-435, Melanoma
  GI50: < 10 nM
  TGI: 0.01 µM
[21]; MDA-MB-435, in words
  sensitivity to the growth inhibitory effects: sensitive
[22]
  GI50: 55.5 nM
  TGI: >100 µM
[24]
  GI50: < 10 nM
  TGI: >100 µM
[25]; OVCA R-3, Ovarian Cancer
  GI50: 24.4 nM
  TGI: >100 µM
[26]
  TGI: >100 µM
[27]
  TGI: 0.08 µM
  GI50: < 10 nM
[28]
  TGI: >100 µM
  GI50: 15.3 nM
[29]
  GI50: < 10 nM
[30]
  TGI: >100 µM
  GI50: 50.2 nM
[31]
  GI50: 20 nM
  TGI: >100 µM
[32]
  GI50: 41.5 nM
  TGI: >100 µM
[33]
  TGI: >100 µM
  GI50: 44.8 nM
[34]
  TGI: >100 µM
  GI50: 24.5 nM
[35]
  TGI: >100 µM
  GI50: 40.9 nM
[36]
  GI50: 23.3 nM
  TGI: 0.08 µM

## COc1ccc(-c2n[nH]nc2-c2cc(OC)cc(OC)c2)cc1 [Example 5, 4-(3,5-dimethoxyphenyl)-5-(4-methoxyphenyl)-2H-1,2,3-triazole]
[1]
  TGI: 46.3 µM
  GI50: < 10 nM
[2]
  GI50: < 10 nM
[3]
  GI50: < 10 nM
  TGI: >100 µM
[4]
  GI50: < 10 nM
  TGI: 24.6 µM
[5]
  TGI: >100 µM
  GI50: < 10 nM
[6]
  TGI: 73.4 µM
  GI50: < 10 nM
[7]
  TGI: 68.7 µM
  GI50: < 10 nM
[8]
  TGI: 0.12 µM
  GI50: 29.2 nM
[9]
  TGI: >100 µM
  GI50: < 10 nM
[10]
  TGI: >100 µM
  GI50: < 10 nM
[11]
  TGI: 10.8 µM
  GI50: < 10 nM
[12]
  TGI: 0.05 µM
  GI50: < 10 nM
[13]
  GI50: < 10 nM
  TGI: >100 µM
[14]
  GI50: < 10 nM
  TGI: 90.0 µM
[15]
  GI50: < 10 nM
  TGI: 27.5 µM
[16]; SF-539, CNS Cancer
  GI50: < 10 nM
  TGI: <0.01 µM
[16]; SF-539, as stated in text
  TGI: less than 10 nM
[17]
  GI50: < 10 nM
  TGI: >100 µM
[18]
  GI50: < 10 nM
[19]
  TGI: >100 µM
  GI50: < 10 nM
[20]
  TGI: 23.0 µM
  GI50: < 10 nM
[21]; MDA-MB-435, Melanoma
  GI50: < 10 nM
  TGI: <0.01 µM
[21]; MDA-MB-435, as stated in text
  TGI: less than 10 nM
[22]
  GI50: < 10 nM
  TGI: 30.5 µM
[23]
  TGI: 60.7 µM
[24]
  GI50: > 1000 nM
  TGI: >100 µM
[25]; OVCA R-3, Ovarian Cancer
  GI50: < 10 nM
  TGI: <0.01 µM
[25]; OVCAR-3, as stated in text
  TGI: less than 10 nM
[26]
  GI50: < 10 nM
  TGI: >100 µM
[27]
  TGI: 17.5 µM
  GI50: < 10 nM
[28]
  TGI: 19.4 µM
  GI50: < 10 nM
[29]; A498, Renal Cancer
  TGI: <0.01 µM
[29]; A498, as stated in text
  TGI: less than 10 nM
[29]
  GI50: < 10 nM
[30]
  TGI: >100 µM
  GI50: < 10 nM
[31]
  GI50: < 10 nM
  TGI: 25.1 µM
[32]
  GI50: < 10 nM
  TGI: 35.2 µM
[33]
  GI50: < 10 nM
[34]
  TGI: >100 µM
  GI50: < 10 nM
[35]
  TGI: >100 µM
  GI50: < 10 nM
[36]
  GI50: < 10 nM
  TGI: 22.4 µM
